Experimental data published in patent US20220098146A1, “REVERSIBLE IMINE UV-ABSORBERS” (The United States of America, as represented by the …, priority 2020, published 2022).
Values after ≈ are worked out from the molar mass of the structure shown.

How the values were obtained:
Rat = settings: cited from earlier work
Silver ide = settings: cited from earlier work
Fathead minnow = settings: cited from earlier work
[1] = in vitro SPF and critical wavelength by UV spectroscopy and Mansur equation; format: physicochemical
Experimental: General procedure for determining in vitro SPF and critical wavelength: This method was adapted from Dutra, et al. (Dutra, E. A., et al., Brazilian Journal of Pharmaceutical Sciences, 3: 381-385 (2004)). First, 1.0 gram of sunscreen was placed in 100 mL flask and filled to volume with ethanol. The solution was mixed and filtered through cotton. 1.0 mL of the filtered solution was added to a 50 mL volumetric flask and the flask was filled to volume with ethanol. This final solution (˜0.02% of initial sunscreen) was placed in a 1 cm polystyrene cuvette and UV/Vis spectrum was recorded from 290 to 400 nm, every 5 nm, using a UV/Vis spectrophotometer (Molecular Devices Spectramax M2 UV-Vis Spectrophotometer) with ethanol as a reference . Next, the Mansur equation was applied (Mansur, J. S., et al., An Bras Dermatol., 61: 121-124 (1986)):
where EE (λ)=erythemal effect spectrum; I(λ)=solar intensity spectrum; abs (λ)=absorbance of sunscreen product; CF—correction factor (=10). The values of EE×I are constants determined by Sayre et al. (Photochemistry and Photobiology, 29(3): 559-566 (1979)) so that a standard sunscreen formulation containing 8% homosalate presents an SPF value of 4. The critical wavelength was determined as the wavelength at which 90% of the total absorbance from 290-400 nm occurred. […]

[2] = tested on: skin of the intrascapular regions of the back; assay: Human repeat insult patch testing (RIPT) for skin irritation and skin sensitization; format: in vivo
Experimental: S2: Repeat Insult Patch Testing (RIPT) Procedure and Results: Human repeat insult patch testing for skin irritation and skin sensitization evaluations, including standard patient consent procedures and oversight, which were obtained after the nature and possible consequences of the study were explained, were conducted by BioScreen Testing Services, Inc. (Torrance, Calif.). Fifty-two volunteers were recruited, provided informed consent prior to initiating, and completed the study (ages 20-59, 10 male, 42 female, all with Fitzpatrick Skin Type 3—burn moderately, tan progressively). Approximately 0.02-0.05 mL of commercial formula (Daily Shower spray cleaner containing 0.2 or 1.0% cuminaldehyde aminoguanidine (CuminAG), pH 5.5-5.9; diluted 3% in DI water) was dispensed on a 7.5 mm paper disk or Rayon/polypropylene patch, which were then affixed to the skin of the intrascapular regions of the back. Subjects were instructed not to wet or expose the test area to sunlight. Patches were kept in place for 48 h after the first application, and 24 h after subsequent applications. This procedure was repeated until nine consecutive 24 h exposures had been made three times a week for three consecutive weeks. Test sites were evaluated by a trained laboratory personnel before each reapplication. After a 10-14 day rest period, a challenge dose was applied once to a previously unexposed test site, which was evaluated by a trained personnel after 48 and 96 h. The International Contact Dermatitis Research Group scoring scale was used: 0=no reaction, 1=erythema throughout at least ¾ of patch area, 2=erythema and induration throughout at least ¾ of patch area, 3=erythema, induration and vesicles, 4=erythema, induration and bullae.

[3] = Calculation of skin permeation coefficient using Modified Potts and Guy Model; settings: ratio of calculated skin permeation coefficient to that of octinoxate
Description: S1: Calculation of Skin Permeation using Modified Potts and Guy Model: The Modified Potts and Guy Model is a validated method for calculating the skin permeation coefficient (Kp) of a compound in cm/hr (Wilschut et al. 1995; Guy and Potts 1993). It relies on two inputs—the octanol-water partition coefficient, (Kow, indicative of hydrophobicity), and the molecular weight of the compound as follows:
Using the Modified Potts and Guy Model, we calculated the skin permeation coefficient (Kp) of aminoguanidine and aldehyde subcomponents. This scenario represents the skin permeation of our compounds after dissociation. In order to probe skin permeation of the assembled guanyl hydrazones, which don't have published Kow's, we calculated Kp's of structurally similar molecules, robenidine and guanabenz. This scenario represents the application of our UV-absorbers directly to the skin via topical products. Lastly, we calculated the Kp of octinoxate for comparison. Based on these theoretical values, our compounds should have a much lower skin permeation potential than octinoxate and other commercial UV-absorbers.

[4] = film leaching in DI or sea water with anion pairing; format: physicochemical
Experimental: General protocol to assess film leaching: To a polyethylene square (1 cm by 1 cm, cut from a Ziploc® bag) 10 μL of a concentrated solution (˜5 wt % in EtOH) of imine was applied and allowed to dry at room temperature (10-20 min) before a concentrated solution of the anion (e.g., sodium lauryl sulfate, sodium cocoyl glutamate, sodium carbonate) to be tested (˜5 wt %) was co-applied and again allowed to dry on the film surface. The film sample was placed inside a 1.5 mL plastic tube containing 1 mL of DI or sea water (sourced from San Francisco Bay, Albany, Calif.) and after a set time (10 min), analyzed for the presence of soluble imine, which was quantified as a percentage of total sample that was originally present on the film (FIG. 6).
As an additional feature, reversible UV-absorbers (e.g., aminoguanidine-aldehyde condensation products) can be paired with anions (e.g., that associate with the cation at typical use levels, e.g., 0.1-10 wt %) to manipulate solubility characteristics. This can greatly reduce water solubility to produce a waterproof sunscreen without relying on increased hydrophobicity of the active agent which is related to increased skin penetration (Wilschut, A., et al., Chemosphere, 30: 1275-1296 (1995); Guy, R. H., and R. O. Potts. American Journal of Industrial Medicine, 23(5): 711-719 (1993))).

[5] = UV absorbance spectroscopy versus subcomponents; format: physicochemical; settings: versus diaminoguanidine and cinnamaldehyde; UVB and UVA regions
Description: We determined the UV absorbing capacity of guanyl hydrazones in comparison to their aminoguanidine and aldehyde subcomponents. We prepared cinnamaldehyde diaminoguanidine (CinDAG) by reacting its subcomponents, diaminoguanidine and cinnamaldehyde, in a molar ratio of 1:2.

COc1ccc(C=O)cc1 [Anisaldehyde]
LD50 (mg/kg) Rat, oral (Rat): 1510 mg/kg | LC50 (mg/L) Fish (Silver ide): 215 mg/L (≈ 1580 µM)

O=Cc1ccccc1 [Benzaldehyde]
LD50 (mg/kg) Rat, oral (Rat): 1300 mg/kg | LC50 (mg/L) Fish (Fathead minnow): 12.4 mg/L (≈ 117 µM)

NC(N)=NN=CC=Cc1ccccc1 [CinAG, cinnamaldehyde aminoguanidine]
in vitro SPF improvement over octinoxate ([1]; concentration of 1% in formula): 155%

O=CC=Cc1ccccc1 [Cinnamaldehyde]
LD50 (mg/kg) Rat, oral (Rat): 3350 mg/kg | LC50 (mg/L) Fish (Fathead minnow): 105.8 mg/L (≈ 801 µM)

CC(C)c1ccc(C=NN=C(N)N)cc1 [CuminAG, cuminaldehyde aminoguanidine]
adverse reactions in RIPT ([2]; Daily Shower spray cleaner containing 0.2 or 1.0% CuminAG, pH 5.5-5.9, diluted 3% in DI water, 52 volunteers, induction and challenge): no adverse reactions of any kind

CC(C)c1ccc(C=O)cc1 [Cuminaldehyde]
LD50 (mg/kg) Rat, oral (Rat): 1390 mg/kg | LC50 (mg/L) Fish (Fathead minnow): 6.62 mg/L (≈ 44.7 µM)

N/N=C(\N)NN [Diaminoguanidine]
Kp/Kp octinoxate [3]: 0.0001

CCCCC(CC)COC(=O)C=Cc1ccc(OC)cc1 (stereo not drawn) [Octinoxate, reference compound]
Kp/Kp octinoxate [3]: 1.0000

CCCCCCCCCCCCOS(=O)(=O)[O-].[Na+] [sodium lauryl sulfate]
subjects with Grade 1 reaction in RIPT ([2]; positive control, 2.0% solution, ICDRG scale, 1=erythema throughout at least 3/4 of patch area): Four | subjects with Grade 2 reaction in RIPT ([2]; positive control, 2.0% solution, ICDRG scale, 2=erythema and induration throughout at least 3/4 of patch area): two

cinnamaldehyde diaminoguanidine [CinDAG]
critical wavelength ([1]; wavelength at which 90% of total absorbance from 290-400 nm occurred): high critical wavelength | water resistance of the blend ([4]; blend with sodium cocoyl glutamate): comparable to that of octinoxate | solubility (leaching off film) on anion pairing ([4]; sodium cocoyl glutamate added, fresh and salt water, 10 min): decreased solubility in both fresh and salt water | UV-absorbing capacity compared to subcomponents [5]: significantly more UV-absorbing capacity than its subcomponents
